Measurements published in patent publication US12564547B2, “Compositions, formulations, and methods for skin treatment” (Oddity Labs, LLC, priority 2022, dated 2026).

What follows are compounds tested on human dermal fibroblasts (assay: Human dermal fibroblast cells (hDFC) proliferation, cell viability assay (CellTiter-Glo, manual cell counting)). Conditions: hDFCs proliferation; control is DMSO.
Format: cell-based
Also: test concentration or dose not given here.

| SMILES | Activity (Percent Increase Proliferation of hFDPCs (%)) |
| --- | --- |
| Nn1c(SCC(=O)N2CCCCC2)nnc1-c1ccccc1 [I-2, 2-[(4-amino-5-phenyl-1,2,4-triazol-3-yl)sulfanyl]-1-piperidin-1-ylethanone] | B (increased proliferation of hFDPCs equals to or larger than 1% and less than 4%) |
| Cc1ccc(-c2nnc(SCC(=O)N3CCCC3)n2N)cc1 [I-3, 2-[[4-amino-5-(4-methylphenyl)-1,2,4-triazol-3-yl]sulfanyl]-1-pyrrolidin-1-ylethanone] | C (increased proliferation of hFDPCs equals to or larger than 4% and less than 8%) |
| Nn1c(SCC(=O)N2CCCC2)nnc1C1CCCCC1 [I-4, 2-[(4-amino-5-cyclohexyl-1,2,4-triazol-3-yl)sulfanyl]-1-pyrrolidin-1-ylethanone] | C (increased proliferation of hFDPCs equals to or larger than 4% and less than 8%) |
| CCn1c(SCC(=O)N2CCCCCC2)nnc1-c1ccncc1 [I-5, 1-(azepan-1-yl)-2-[(4-ethyl-5-pyridin-4-yl-1,2,4-triazol-3-yl)sulfanyl]ethanone] | C (increased proliferation of hFDPCs equals to or larger than 4% and less than 8%) |
| C=CCn1c(SCC(=O)N2CCCCC2)nnc1-c1ccncc1 [I-6, 1-piperidin-1-yl-2-[(4-prop-2-enyl-5-pyridin-4-yl-1,2,4-triazol-3-yl)sulfanyl]ethanone] | C (increased proliferation of hFDPCs equals to or larger than 4% and less than 8%) |
| Cn1c(SCC(=O)N2CCCCC2)nnc1-c1ccccc1 [I-7, 2-[(4-methyl-5-phenyl-1,2,4-triazol-3-yl)sulfanyl]-1-piperidin-1-ylethanone] | B (increased proliferation of hFDPCs equals to or larger than 1% and less than 4%) |
| CCCC(=O)NCc1ccc(OC)cc1 [II-2, N-[(4-methoxyphenyl)methyl]butanamide] | B (increased proliferation of hFDPCs equals to or larger than 1% and less than 4%) |
| CCN(CC)CC(=O)NC(C)c1ccccc1 (stereo not drawn) [II-3, 2-(diethylamino)-N-(1-phenylethyl)acetamide] | A (increased proliferation of hFDPCs of less than 1%) |
| CCC(=O)NC(C)c1ccccc1 (stereo not drawn) [II-4, N-(1-phenylethyl)propanamide] | C (increased proliferation of hFDPCs equals to or larger than 4% and less than 8%) |
| CC(C)CC(=O)NC(C)c1ccccc1 (stereo not drawn) [II-5, 3-methyl-N-(1-phenylethyl)butanamide] | D (increased proliferation of hFDPCs equals to or larger than 8%) |
| COc1ccc(CCCNC(=O)C(C)C)cc1 [II-6, N-[3-(4-methoxyphenyl)propyl]-2-methylpropanamide] | C (increased proliferation of hFDPCs equals to or larger than 4% and less than 8%) |
| COc1ccc(CNC(=O)C(=O)NCCCn2ccnc2)cc1 [III-2, N-(3-imidazol-1-ylpropyl)-N′-[(4-methoxyphenyl)methyl]oxamide] | D (increased proliferation of hFDPCs equals to or larger than 8%) |
| COc1ccc(CNC(=O)C(=O)NC(C)c2ccccc2)cc1 (stereo not drawn) [III-3, N-[(4-methoxyphenyl)methyl]-N′-(1-phenylethyl)oxamide] | B (increased proliferation of hFDPCs equals to or larger than 1% and less than 4%) |
| CC(NC(=O)C(=O)NC(C)c1ccccc1)c1ccccc1 (stereo not drawn) [III-4, N,N′-bis(1-phenylethyl)oxamide] | B (increased proliferation of hFDPCs equals to or larger than 1% and less than 4%) |
| COc1ccc(C(=O)NC(C(=O)NC(C)Cn2ccnc2)C(C)C)cc1 (stereo not drawn) [III-5, N-[1-(1-imidazol-1-ylpropan-2-ylamino)-3-methyl-1-oxobutan-2-yl]-4-methoxybenzamide] | B (increased proliferation of hFDPCs equals to or larger than 1% and less than 4%) |
